ChEMBL document CHEMBL3232814, “Synthesis and anticancer structure activity relationship investigation of cationic anthraquinone analogs” (2014)

Assays:
Format in all cases: functional
U-251 = experiment: Growth inhibition of human U251 cells
A549 = experiment: Growth inhibition of human A549 cells
[1] = Growth inhibition of human SF295 cells; conditions: SF-295
NCI-H23 = experiment: Growth inhibition of human NCI-H23 cells
COLO 205 = experiment: Growth inhibition of human COLO205 cells
SNB-75 = experiment: Growth inhibition of human SNB75 cells
Malme-3M = experiment: Growth inhibition of human MALME-3M cells
[2] = Growth inhibition of human UACC257 cells
[3] = Growth inhibition of human HCC2998 cells
[4] = Growth inhibition of human SF539 cells
HOP-62 = experiment: Growth inhibition of human HOP62 cells
SK-MEL-5 = experiment: Growth inhibition of human SK-MEL-5 cells
Staphylococcus aureus = experiment: Antimicrobial activity against Staphylococcus aureus ATCC 25923 after 12 to 18 hrs by 2-fold serial dilution method
NCI-H322M = experiment: Growth inhibition of human NCI-H322M cells
HT-29 = experiment: Growth inhibition of human HT-29 cells
NCI-H226 = experiment: Growth inhibition of human NCI-H226 cells
SW-620 = experiment: Growth inhibition of human SW620 cells
[5] = Growth inhibition of human LOXIMVI cells; conditions: LOX IMVI
SF-268 = experiment: Growth inhibition of human SF268 cells
KM12 = experiment: Growth inhibition of human KM12 cells
[6] = Growth inhibition of human HCT15 cells
[7] = Growth inhibition of human UACC62 cells
SK-MEL-28 = experiment: Growth inhibition of human SK-MEL-28 cells
SK-MEL-2 = experiment: Growth inhibition of human SK-MEL-2 cells
[8] = Growth inhibition of human NCI60 cells assessed as cell growth; parameters: concentration or dose not given beside the values
HCT-116 = experiment: Growth inhibition of human HCT116 cells
[9] = Growth inhibition of human HOP92 cells
SNB-19 = experiment: Growth inhibition of human SNB19 cells
MDA-MB-435 = experiment: Growth inhibition of human MDA-MB-435 cells
M14 = experiment: Growth inhibition of human M14 cells
NCI-H460 = experiment: Growth inhibition of human NCI-H460 cells
NCI-H522 = experiment: Growth inhibition of human NCI-H522 cells
[10] = read-out: LC50 (the source's name)

COc1ccc(-n2n[n+](C)c3c2C(=O)c2ccccc2C3=O)cc1OC.O=S(=O)([O-])C(F)(F)F
GI50 (U-251): 1340 nM
LC50 (U-251): 5110 nM
GI50 (A549): 400 nM
CC50 (A549; [10]): 8970 nM
GI50 [1]: 200 nM
LC50 (concentration killing 50% of cells) [1]: 950 nM
GI50 (NCI-H23): 1060 nM
CC50 (NCI-H23; [10]): > 100000 nM
GI50 (COLO 205): 310 nM
CC50 (COLO 205; [10]): 5710 nM
GI50 (SNB-75): 820 nM
CC50 (SNB-75; [10]): 4560 nM
GI50 (Malme-3M): 210 nM
CC50 (Malme-3M; [10]): 1880 nM
GI50 ([2]; UACC-257): 1490 nM
CC50 ([2]; UACC-257, read-out: LC50 (the source's name)): 5340 nM
GI50 ([3]; HCC 2998): 1650 nM
CC50 ([3]; HCC 2998, read-out: LC50 (the source's name)): 5790 nM
GI50 ([4]; SF-539): 500 nM
CC50 ([4]; SF-539, read-out: LC50 (the source's name)): 4080 nM
GI50 (HOP-62): 1230 nM
CC50 (HOP-62; [10]): 5640 nM
GI50 (SK-MEL-5): 160 nM
LC50 (lethal concentration 50) (SK-MEL-5): 570 nM
MIC (Staphylococcus aureus): 4 µg/mL
GI50 (NCI-H322M): 300 nM
CC50 (NCI-H322M; [10]): 3340 nM
GI50 (HT-29): 550 nM
LC50 (HT-29): 22200 nM
GI50 (NCI-H226): 1300 nM
CC50 (NCI-H226; [10]): 6850 nM
GI50 (SW-620): 1660 nM
CC50 (SW-620; [10]): 8870 nM
GI50 [5]: 1140 nM
GI50 (SF-268): 1230 nM
CC50 (SF-268; [10]): > 100000 nM
GI50 (KM12): 1380 nM
CC50 (KM12; [10]): 7230 nM
GI50 ([6]; HCT-15): 1110 nM
CC50 ([6]; HCT-15, read-out: LC50 (the source's name)): 6060 nM
GI50 ([7]; UACC-62): 1220 nM
CC50 ([7]; UACC-62, read-out: LC50 (the source's name)): 5090 nM
GI50 (SK-MEL-28): 1340 nM
CC50 (SK-MEL-28; [10]): 6470 nM
GI50 (SK-MEL-2): 1400 nM
CC50 (SK-MEL-2; [10]): 7370 nM
Activity [8]: -31.51%
GI50 (HCT-116): 1160 nM
CC50 (HCT-116; [10]): 9530 nM
GI50 ([9]; HOP-92): 2270 nM
CC50 ([9]; HOP-92, read-out: LC50 (the source's name)): 58800 nM
GI50 (SNB-19): 1140 nM
LC50 (SNB-19): 4870 nM
GI50 (MDA-MB-435): 190 nM
CC50 (MDA-MB-435; [10]): 640 nM
GI50 (M14): 330 nM
CC50 (M14; [10]): 3470 nM
GI50 (NCI-H460): 360 nM
CC50 (NCI-H460; [10]): 8210 nM
GI50 (NCI-H522): 2000 nM
CC50 (NCI-H522; [10]): 6860 nM
